Assay results: PubChem BioAssay AID1259407 (Chemical Carcinogenesis Research Information System (CCRIS), 2018)
Active and inactive are the calls of the source. The rule behind the calls is not given here.

Test system: CCRIS mutagenicity, Ames/micronucleus/aberration tests
Test: CCRIS mutagenicity studies
[1] = Test System: AMES SALMONELLA TYPHIMURIUM, Strain/Indicator: TA98, Metabolic Activation: NONE, Method: STANDARD PLATE
[2] = Test System: AMES SALMONELLA TYPHIMURIUM, Strain/Indicator: TA100, Metabolic Activation: NONE, Method: STANDARD PLATE
[3] = Test System: AMES SALMONELLA TYPHIMURIUM, Strain/Indicator: TA100, Metabolic Activation: NONE, Method: PREINCUBATION
[4] = Test System: AMES SALMONELLA TYPHIMURIUM, Strain/Indicator: TA1535, Metabolic Activation: NONE, Method: STANDARD PLATE
[5] = Test System: AMES SALMONELLA TYPHIMURIUM, Strain/Indicator: TA1537, Metabolic Activation: NONE, Method: STANDARD PLATE
[6] = Test System: AMES SALMONELLA TYPHIMURIUM, Strain/Indicator: TA1538, Metabolic Activation: NONE, Method: STANDARD PLATE

## Cc1c(/C=N/OCc2cccc([N+](=O)[O-])c2)c2cc([N+](=O)[O-])ccc2n1Cc1ccccc1
[1]
  mutagenic call: active; positive
Test System: AMES SALMONELLA TYPHIMURIUM, Strain/Indicator: TA98, Metabolic Activation: RAT, LIVER, S-9, PHENOBARBITAL AND BETA-NAPHTHOFLAVONE, Method: STANDARD PLATE
  mutagenic call: active; positive
[2]
  mutagenic call: active; positive
Test System: AMES SALMONELLA TYPHIMURIUM, Strain/Indicator: TA100, Metabolic Activation: RAT, LIVER, S-9, PHENOBARBITAL AND BETA-NAPHTHOFLAVONE, Method: STANDARD PLATE
  mutagenic call: active; positive

## Nc1cccc2cccnc12
Test System: AMES SALMONELLA TYPHIMURIUM, Strain/Indicator: TA98, Metabolic Activation: NONE, Method: PREINCUBATION
  mutagenic call: active; positive
Test System: AMES SALMONELLA TYPHIMURIUM, Strain/Indicator: TA98, Metabolic Activation: RAT, LIVER, S-9, KANECHLOR 500 OR PHENOBARBITAL AND BETA-NAPHTHOFLAVONE, Method: PREINCUBATION
  mutagenic call: active; positive
[3]
  mutagenic call: active; positive
Test System: AMES SALMONELLA TYPHIMURIUM, Strain/Indicator: TA100, Metabolic Activation: RAT, LIVER, S-9, KANECHLOR 500 OR PHENOBARBITAL AND BETA-NAPHTHOFLAVONE, Method: PREINCUBATION
  mutagenic call: active; positive
Test System: AMES SALMONELLA TYPHIMURIUM, Strain/Indicator: TA100, Metabolic Activation: S-9, Method: PREINCUBATION
  mutagenic call: active; positive

## O=C(OCC1CO1)C1CCCCC1C(=O)OCC1CO1 (stereo not given)
Test System: AMES SALMONELLA TYPHIMURIUM, Strain/Indicator: TA100, Metabolic Activation: HAMSTER, LIVER, S-9, AROCLOR 1254 (30%), Method: PREINCUBATION
  mutagenic call: active; positive
[3]
  mutagenic call: active; positive
Test System: AMES SALMONELLA TYPHIMURIUM, Strain/Indicator: TA100, Metabolic Activation: RAT, LIVER, S-9, AROCLOR 1254 (30%), Method: PREINCUBATION
  mutagenic call: active; positive
Test System: AMES SALMONELLA TYPHIMURIUM, Strain/Indicator: TA1535, Metabolic Activation: HAMSTER, LIVER, S-9, AROCLOR 1254 (30%), Method: PREINCUBATION
  mutagenic call: active; positive
Test System: AMES SALMONELLA TYPHIMURIUM, Strain/Indicator: TA1535, Metabolic Activation: NONE, Method: PREINCUBATION
  mutagenic call: active; positive
Test System: AMES SALMONELLA TYPHIMURIUM, Strain/Indicator: TA1535, Metabolic Activation: RAT, LIVER, S-9, AROCLOR 1254 (30%), Method: PREINCUBATION
  mutagenic call: active; positive

## C=C(C)[C@@H]1CC=C(C=O)CC1
Test System: AMES SALMONELLA TYPHIMURIUM, Strain/Indicator: TA97, Metabolic Activation: NONE, Method: PREINCUBATION
  mutagenic call: inactive; negative
Test System: AMES SALMONELLA TYPHIMURIUM, Strain/Indicator: TA97, Metabolic Activation: RAT, LIVER, S-9, AROCLOR 1254, Method: PREINCUBATION
  mutagenic call: inactive; negative
Test System: AMES SALMONELLA TYPHIMURIUM, Strain/Indicator: TA102, Metabolic Activation: NONE, Method: PREINCUBATION
  mutagenic call: inactive; negative
Test System: AMES SALMONELLA TYPHIMURIUM, Strain/Indicator: TA102, Metabolic Activation: RAT, LIVER, S-9, AROCLOR 1254, Method: PREINCUBATION
  mutagenic call: inactive; negative

## C[Si](Cl)(Cl)Cl
[1]
  mutagenic call: inactive; negative
Test System: AMES SALMONELLA TYPHIMURIUM, Strain/Indicator: TA98, Metabolic Activation: RAT LIVER S-9, AROCLOR 1254, Method: STANDARD PLATE
  mutagenic call: inactive; negative
[2]
  mutagenic call: inactive; negative
Test System: AMES SALMONELLA TYPHIMURIUM, Strain/Indicator: TA100, Metabolic Activation: RAT LIVER S-9, AROCLOR 1254, Method: STANDARD PLATE
  mutagenic call: inactive; negative
[4]
  mutagenic call: inactive; negative
Test System: AMES SALMONELLA TYPHIMURIUM, Strain/Indicator: TA1535, Metabolic Activation: RAT LIVER S-9, AROCLOR 1254, Method: STANDARD PLATE
  mutagenic call: inactive; negative
[5]
  mutagenic call: inactive; negative
Test System: AMES SALMONELLA TYPHIMURIUM, Strain/Indicator: TA1537, Metabolic Activation: RAT LIVER S-9, AROCLOR 1254, Method: STANDARD PLATE
  mutagenic call: inactive; negative
[6]
  mutagenic call: inactive; negative
Test System: AMES SALMONELLA TYPHIMURIUM, Strain/Indicator: TA1538, Metabolic Activation: RAT LIVER S-9, AROCLOR 1254, Method: STANDARD PLATE
  mutagenic call: inactive; negative
Test System: E. COLI, Strain/Indicator: P3078 POLA, Metabolic Activation: NONE, Method: SPOT TEST
  mutagenic call: inactive; negative
Test System: E. COLI, Strain/Indicator: P3078 POLA, Metabolic Activation: RAT LIVER S-9, AROCLOR 1254, Method: SPOT TEST
  mutagenic call: inactive; negative
Test System: E. COLI, Strain/Indicator: W3110, Metabolic Activation: NONE, Method: SPOT TEST
  mutagenic call: inactive; negative
Test System: E. COLI, Strain/Indicator: W3110, Metabolic Activation: RAT LIVER S-9, AROCLOR 1254, Method: SPOT TEST
  mutagenic call: inactive; negative
Test System: MOUSE LYMPHOMA, Strain/Indicator: L5178Y (TK+/TK-), Metabolic Activation: NONE, Method: SUSPENSION/PLATE
  mutagenic call: inactive; negative
Test System: MOUSE LYMPHOMA, Strain/Indicator: L5178Y (TK+/TK-), Metabolic Activation: RAT, LIVER, S-9, Method: SUSPENSION/PLATE
  mutagenic call: inactive; negative

## CCC(=O)CN(CC(=O)CC)N=O
Test System: CHINESE HAMSTER V-79, Strain/Indicator: V-79/OUABAIN, Metabolic Activation: HAMSTER, HEPATOCYTES, Method: CELL-MEDIATED
  mutagenic call: active; positive

## Cc1ccc(-c2nc3n(c2[N+](=O)[O-])CCS3)cc1
[1]
  mutagenic call: inactive; negative
[2]
  mutagenic call: active; positive
[4]
  mutagenic call: inactive; negative
[5]
  mutagenic call: inactive; negative
[6]
  mutagenic call: inactive; negative

## O=C(OCc1ccc(Cl)cc1Cl)c1cccc2cccnc12
[1]
  mutagenic call: inactive; negative
Test System: AMES SALMONELLA TYPHIMURIUM, Strain/Indicator: TA98, Metabolic Activation: RAT, LIVER, S-9, AROCLOR 1254, Method: STANDARD PLATE
  mutagenic call: inactive; negative
[2]
  mutagenic call: inactive; negative
Test System: AMES SALMONELLA TYPHIMURIUM, Strain/Indicator: TA100, Metabolic Activation: RAT, LIVER, S-9, AROCLOR 1254, Method: STANDARD PLATE
  mutagenic call: inactive; negative
[4]
  mutagenic call: inactive; negative
Test System: AMES SALMONELLA TYPHIMURIUM, Strain/Indicator: TA1535, Metabolic Activation: RAT, LIVER, S-9, AROCLOR 1254, Method: STANDARD PLATE
  mutagenic call: inactive; negative
[5]
  mutagenic call: inactive; negative
Test System: AMES SALMONELLA TYPHIMURIUM, Strain/Indicator: TA1537, Metabolic Activation: RAT, LIVER, S-9, AROCLOR 1254, Method: STANDARD PLATE
  mutagenic call: inactive; negative

## O=C1c2c(ccc3ccccc23)-c2ccc3ccccc3c21
[1]
  mutagenic call: inactive; negative
[2]
  mutagenic call: inactive; negative

## N#C/C(=C/C=C/c1ccccc1)c1ccc(F)cc1
Test System: AMES SALMONELLA TYPHIMURIUM, Strain/Indicator: TA97A, Metabolic Activation: NONE, Method: STANDARD PLATE
  mutagenic call: active; positive
[2]
  mutagenic call: inactive; negative

## COc1ccc2c(c1)C(=O)c1c(OC)c(OC)cc3ccnc-2c13
Test System: AMES SALMONELLA TYPHIMURIUM, Strain/Indicator: TA98, Metabolic Activation: RAT, LIVER, S-9, PHENOBARBITAL AND BETA-NAPHTHOFLAVONE, Method: PREINCUBATION
  mutagenic call: active; positive
Test System: AMES SALMONELLA TYPHIMURIUM, Strain/Indicator: TA100, Metabolic Activation: RAT, LIVER, S-9, PHENOBARBITAL AND BETA-NAPHTHOFLAVONE, Method: PREINCUBATION
  mutagenic call: active; positive
